# Assays:
# A549 cells = assay: A549 cell proliferation in low-serine medium (CellTiter-Glo 2.0 viable cell number); type: cell-based; conditions: Homo sapiens, 72 h, 3 days, Assay Medium with 20 μM L-serine
# Description: The effect of compounds of Formula (Ia) on A549 cell proliferation in low-serine medium was assessed using a luminescence assay of viable cell number (CellTiter-Glo® 2.0, Promega) duplexed with a fluorescent cytotoxicity assessment (CelITox™ Green, Promega). Cell culture reagents were from ThermoFisher unless specified otherwise. Assay reagents were from Sigma-Aldrich unless specified otherwise. Test Compounds were prepared as 10 mM DMSO stocks and dilution series prepared in DMSO for direct dilution into culture medium.
# Cells were passaged every 3-4 days at 80-90% confluence. The cell monolayer was washed twice with room-temperature Ca^2+/Mg-free PBS and 4 ml room-temperature trypsin-EDTA added to the flask. After 5 minutes' incubation (37° C., 5% CO2) to detach cells, trypsin was quenched with 13 ml warmed complete growth medium and the cells harvested and diluted to 2.4×10^4 cells/ml for dispensing into 384-well clear-bottom black-walled plates (600 cells/well).
# Following overnight incubation, growth medium was aspirated from each well and the cells washed twice with Assay Medium comprising Basal Medium Eagle supplemented with 3% heat-inactivated dialysed FBS plus 2 mM L-glutamine plus 20 μM L-serine (Sigma-Aldrich). After aspiration of the final wash medium, Assay Medium containing Test Compound was added to each well. DMSO vehicle controls were included on each plate.
# Cells were incubated for 3 days in a humidified incubator (37° C., 5% CO2) at which point CelITox™ Green and CellTiter-Glo® reagents were prepared according to the manufacturer's instructions. Triton-X was added to HIGH wells for cytotoxicity determination and the plate incubated for 30 minutes (20° C., ambient humidity and pCO2). CelITox™ Green reagent was added to each well and the plate covered, placed on an orbital shaker @450 rpm for 2 minutes, and incubated in the dark for 15 minutes (20° C., ambient humidity and pCO2). Endpoint fluorescence was measured using a plate reader (PHERAstar® FSX, BMG Labtech).
# Following cytotoxicity determination, CellTiter-Glo® reagent was added to each well and the plate placed on an orbital shaker @450 rpm for 2 minutes to lyse cells. Plates were incubated in the dark for 15-30 minutes (20° C., ambient humidity and pCO2) prior to endpoint luminescence measurement (PHERAstar® FSX, BMG Labtech).
# Proliferation was calculated by normalizing luminescence signals to LOW controls obtained from a parallel plate processed at the time of Test Compound challenge and HIGH (DMSO vehicle) wells from the compound plate. IC50 values were determined from a 4-parameter logistic fit of compound concentration-response curves.
# recombinant human PKM2 = target: T1, recombinant human PKM2 (Homo sapiens, UniProt P14618); assay: Human PKM2 activation assay (Kinase-Glo Plus luminescent detection of generated ATP); type: biochemical; conditions: for Emax: percentage activation normalised to DMSO vehicle (LOW) and 5 μM TEPP-46 (HIGH), read-out: hPKM2 Emax; for EC50: recombinant human PKM2 activation, 4-parameter logistic fit, read-out: hPKM2 EC50
# T1 construct: His (N); purchased R&D Systems
# How it was run: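 N-His-tagged recombinant hPKM2 ([…]) with PEP and ADP was incubated with compound for 60 min at 26 °C, shaking, in 50 mM imidazole, 50 mM KCl, 7 mM MgCl2, 0.01% Tween20, 0.05% BSA, pH 7.2. ATP produced was read by Kinase-Glo Plus luminescence after 15 min.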
# recombinant human PKLR = target: T2, recombinant human PKLR (Homo sapiens, UniProt P30613); assay: Human PKLR activation assay (Kinase-Glo Plus luminescent detection of generated ATP); type: biochemical; conditions: for EC50: activation of recombinant human PKLR, 4-parameter logistic fit, read-out: hPKLR EC50; for Emax: percentage activation normalised to DMSO vehicle (LOW) and 5 μM TEPP-46 (HIGH) controls, read-out: hPKLR Emax (%)
# T2 construct: His (N); purchased R&D Systems
# Description: Compound activation of recombinant human PKLR pyruvate kinase activity was determined by biochemical assay. N-terminal His-tagged enzyme was sourced from R&D Systems and its substrates phosphoenolpyruvate (PEP) and ADP from Sigma-Aldrich and 2Bscientific Ltd, respectively. The Kinase-Glo® Plus luminescence assay was from Promega. All other reagents were from Sigma-Aldrich. Test Compounds were prepared as 10 mM DMSO stocks and dilution series prepared in DMSO for direct dilution into Assay Buffer comprising 50 mM imidazole, 50 mM KCl, 7 mM MgCl2, 0.01% Tween20, 0.05% BSA (pH 7.2).
# Human PKLR was diluted into Assay Buffer to a final concentration of 5 pM. Enzyme-Assay Buffer mix was dispensed into 384-well shallow-well white-walled plates and Test Compounds added by acoustic dispense (Echo®, Labcyte Inc).
# After 60 minutes' incubation on an orbital shaker (300 rpm, 26° C.), enzyme activity was quantified by the luminescent detection of generated ATP. Kinase-Glo® Plus reagent was added to each well and the plates incubated for a further 15 minutes on an orbital shaker in the dark (300 rpm, 26° C.) before luminescence measurement on a plate reader (PHERAstar® FSX, BMG Labtech).
# Percentage activation was calculated by normalising […] signals to plate LOW (DMSO vehicle) and HIGH (5 μM TEPP-46) controls. EC50 and Emax values were determined from 4-parameter logistic fits of compound concentration-response curves.
# T1 sequence (P14618 2-531 limits assumed): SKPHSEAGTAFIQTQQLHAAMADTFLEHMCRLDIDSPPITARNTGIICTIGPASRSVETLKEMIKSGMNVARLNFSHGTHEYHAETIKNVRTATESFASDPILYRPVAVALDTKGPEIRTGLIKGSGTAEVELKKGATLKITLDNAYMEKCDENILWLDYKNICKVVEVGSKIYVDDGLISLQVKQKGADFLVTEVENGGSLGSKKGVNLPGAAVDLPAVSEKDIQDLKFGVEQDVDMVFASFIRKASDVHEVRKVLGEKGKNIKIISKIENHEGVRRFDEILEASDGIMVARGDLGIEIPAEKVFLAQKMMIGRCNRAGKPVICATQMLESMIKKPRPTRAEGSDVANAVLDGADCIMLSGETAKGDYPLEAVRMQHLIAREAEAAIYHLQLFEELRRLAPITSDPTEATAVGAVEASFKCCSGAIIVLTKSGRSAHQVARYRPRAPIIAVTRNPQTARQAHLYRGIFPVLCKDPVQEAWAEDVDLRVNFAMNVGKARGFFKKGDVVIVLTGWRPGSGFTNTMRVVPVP
# T2 sequence (P30613 whole entry): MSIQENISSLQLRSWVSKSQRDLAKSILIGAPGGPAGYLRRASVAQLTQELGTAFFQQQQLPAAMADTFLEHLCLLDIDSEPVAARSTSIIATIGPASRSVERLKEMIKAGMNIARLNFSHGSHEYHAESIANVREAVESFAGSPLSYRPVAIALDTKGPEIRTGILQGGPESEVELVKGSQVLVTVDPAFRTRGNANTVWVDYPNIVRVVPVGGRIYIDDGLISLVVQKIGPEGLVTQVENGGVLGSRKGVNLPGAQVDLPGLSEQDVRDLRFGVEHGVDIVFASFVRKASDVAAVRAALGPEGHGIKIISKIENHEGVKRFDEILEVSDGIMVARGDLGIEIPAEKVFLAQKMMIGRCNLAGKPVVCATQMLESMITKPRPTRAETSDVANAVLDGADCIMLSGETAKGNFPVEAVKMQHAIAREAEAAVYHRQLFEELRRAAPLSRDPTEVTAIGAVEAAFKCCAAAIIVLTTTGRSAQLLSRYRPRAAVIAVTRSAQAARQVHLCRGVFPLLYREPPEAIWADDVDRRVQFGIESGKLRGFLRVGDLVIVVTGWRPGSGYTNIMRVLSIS
SMILES,IC50 (A549 cells),Emax (recombinant human PKM2),EC50 (recombinant human PKM2),EC50 (recombinant human PKLR),Emax (recombinant human PKLR)
"COc1ccc(S(=O)(=O)c2ccc3c(=O)n(Cc4cccc5c4CCN5)ncc3c2)cc1 [Example 2, 2-(indolin-4-ylmethyl)-6-((4-methoxyphenyl)sulfonyl)phthalazin-1(2H)-one]",0.8 nM,97%,66.4 nM,–,–
"COc1ccc(S(=O)(=O)c2ccc3c(=O)n(Cc4cccn(C)c4=O)ncc3c2)cc1 [Example 4, 6-((4-methoxyphenyl)sulfonyl)-2-((1-methyl-2-oxo-1,2-dihydropyridin-3-yl)methyl)phthalazin-1(2H)-one]",0.7 nM,106%,53.9 nM,–,–
"COc1ccc(S(=O)(=O)c2ccc3c(=O)n(Cc4cc[nH]n4)ncc3c2)cc1 [Example 6, 2-((1H-pyrazol-3-yl)methyl)-6-((4-methoxyphenyl)sulfonyl)phthalazin-1(2H)-one]",1.7 nM,109%,38.9 nM,–,–
"O=c1c2ccc(S(=O)(=O)c3ccccc3)cc2cnn1Cc1cncc(O)c1 [Example 7, 2-((5-hydroxypyridin-3-yl)methyl)-6-(phenylsulfonyl)phthalazin-1(2H)-one]",6.7 nM,99.8%,177 nM,–,–
"COCC(c1ccc(OC)nc1)n1ncc2cc(S(=O)(=O)c3ccccc3)ccc2c1=O (stereo not shown) [Example 8, 2-(2-methoxy-1-(6-methoxypyridin-3-yl)ethyl)-6-(phenylsulfonyl)phthalazin-1(2H)-one]",218 nM,80.8%,931 nM,–,–
"NC(=O)c1ncccc1Cn1ncc2cc(S(=O)(=O)c3ccccc3)ccc2c1=O [Example 9, 3-((1-oxo-6-(phenylsulfonyl)phthalazin-2(1H)-yl)methyl)picolinamide]",17.5 nM,105%,362 nM,–,–
"O=c1c2ccc(S(=O)(=O)c3ccccc3)cc2cnn1Cc1ccn(CCO)n1 [Example 10, 2-((1-(2-hydroxyethyl)-1H-pyrazol-3-yl)methyl)-6-(phenylsulfonyl)phthalazin-1(2H)-one]",7.8 nM,98.8%,166 nM,–,–
"CCn1ccc(Cn2ncc3cc(S(=O)(=O)c4ccccc4)ccc3c2=O)n1 [Example 11, 2-((1-ethyl-1H-pyrazol-3-yl)methyl)-6-(phenylsulfonyl)phthalazin-1(2H)-one]",3.9 nM,99%,72.4 nM,–,–
"COc1ccc(S(=O)(=O)c2ccc3c(=O)n(Cc4ccnc(O)c4)ncc3c2)cc1 [Example 55, 2-((2-hydroxypyridin-4-yl)methyl)-6-((4-methoxyphenyl)sulfonyl)phthalazin-1(2H)-one]",21.7 nM,–,–,–,–
"O=c1c2ccc(S(=O)(=O)c3cc4c(cn3)OCC4)cc2cnn1Cc1cc[nH]n1 [Example 258, 2-((1H-pyrazol-3-yl)methyl)-6-((2,3-dihydrofuro[2,3-c]pyridin-5-yl)sulfonyl)phthalazin-1(2H)-one]",–,108%,88.8 nM,15.3 nM,142%
"Cc1cccc(Cn2ncc3cc(S(=O)(=O)c4cnn(C5CC5)c4)ccc3c2=O)n1 [Example 259, 6-((1-cyclopropyl-1H-pyrazol-4-yl)sulfonyl)-2-((6-methylpyridin-2-yl)methyl)phthalazin-1(2H)-one]",–,96.7%,46.1 nM,13.1 nM,123%
"O=c1c2cc(NCCO)c(S(=O)(=O)c3ccccc3)cc2cnn1Cc1ccn(C2CC2)n1 [Example 265, 2-((1-cyclopropyl-1H-pyrazol-3-yl)methyl)-7-((2-hydroxyethyl)amino)-6-(phenylsulfonyl)phthalazin-1(2H)-one]",–,114%,134 nM,13.5 nM,127%
"Cc1cccc(Cn2ncc3cc(S(=O)(=O)c4cnn(C5COC5)c4)ccc3c2=O)n1 [Example 270, 2-((6-methylpyridin-2-yl)methyl)-6-((1-(oxetan-3-yl)-1H-pyrazol-4-yl)sulfonyl)phthalazin-1(2H)-one]",–,103%,138 nM,108 nM,136%
"COc1ccc(Cn2ncc3cc(S(=O)(=O)c4cnn(CCO)c4)ccc3c2=O)cn1 [Example 271, 6-((1-(2-hydroxyethyl)-1H-pyrazol-4-yl)sulfonyl)-2-((6-methoxypyridin-3-yl)methyl)phthalazin-1(2H)-one]",–,81.3%,54.5 nM,26.4 nM,119%
"O=c1c2ccc(S(=O)(=O)c3cnn(CCO)c3)cc2cnn1Cc1ccn(C2CC2)n1 [Example 272, 2-((1-cyclopropyl-1H-pyrazol-3-yl)methyl)-6-((1-(2-hydroxyethyl)-1H-pyrazol-4-yl)sulfonyl)phthalazin-1(2H)-one]",–,91.3%,93.4 nM,39.1 nM,124%

# Further lines, results first:
IC50 (A549 cells),Emax (recombinant human PKM2),EC50 (recombinant human PKM2),EC50 (recombinant human PKLR),Emax (recombinant human PKLR),SMILES
–,95.9%,50.5 nM,19.5 nM,120%,"Cn1cc(S(=O)(=O)c2ccc3c(=O)n(Cc4cccc(C5CC5)n4)ncc3c2)cn1 [Example 275, 2-((6-cyclopropylpyridin-2-yl)methyl)-6-((1-methyl-1H-pyrazol-4-yl)sulfonyl)phthalazin-1(2H)-one]"
–,103%,45.2 nM,13 nM,110%,"O=c1c2ccc(S(=O)(=O)c3cn[nH]c3)cc2cnn1Cc1cccc(C2CC2)n1 [Example 287, 6-((1H-pyrazol-4-yl)sulfonyl)-2-((6-cyclopropylpyridin-2-yl)methyl)phthalazin-1(2H)-one]"
–,108%,19.6 nM,2.65 nM,118%,"O=c1c2ccc(S(=O)(=O)c3cn[nH]c3)cc2cnn1Cc1ccc2occc2n1 [Example 298, 6-((1H-pyrazol-4-yl)sulfonyl)-2-(furo[3,2-b]pyridin-5-ylmethyl)phthalazin-1(2H)-one]"
–,–,50.4 nM,6.58 nM,–,O=c1c2ccc(S(=O)(=O)c3cnn(CCO)c3)cc2cnn1Cc1ccc2c(n1)CCO2 [Example 309]
–,94.9%,46.3 nM,4.27 nM,114%,Cc1[nH]nc(Cn2ncc3cc(S(=O)(=O)c4cn[nH]c4)ccc3c2=O)c1Cl [Example 314]
–,99.6%,120 nM,14.8 nM,131%,Cc1nc(S(=O)(=O)c2ccc3c(=O)n(Cc4cc[nH]n4)ncc3c2)cs1 [Example 320]
–,100%,73.4 nM,6.57 nM,134%,Cc1cc(F)c(Cn2ncc3cc(S(=O)(=O)c4cn[nH]c4)ccc3c2=O)nc1C [Example 321]
–,–,50.5 nM,6.44 nM,–,O=c1c2ccc(S(=O)(=O)c3cn[nH]c3)cc2cnn1Cc1cc2n(n1)CCO2 [Example 323]
–,10%,36.9 nM,3.71 nM,124%,CC(O)c1nc(S(=O)(=O)c2ccc3c(=O)n(Cc4ccc5c(n4)CCO5)ncc3c2)cs1 (stereo not shown) [Example 327]
4.4 nM,–,–,–,–,"O=C(c1ccc(NS(=O)(=O)c2cccc3cccnc23)cc1)N1CCN(CC2CC2)CC1 [Mitapivat, mitapivat, reference compound]"

# From patent US20260152487A1 (Sitryx Therapeutics Limited, priority 2021, published 2026)
